Tests used:
[1] = Safety and tolerability of the oral rinse; format: in vivo, human; conditions: for safe administration: 200 mg WR-2721 (10 ml 0.09 M) or 125 mg WR-1065 (10 ml 0.09 M)
Protocol: The amifostine is administered to the patient in the formulation described above (Table 2). Specifically, 125 mg of amifostine is provided as an oral rinse. The patient rinses for approximately one minute and thereafter, expels/discards the rinse. The rinse process can be repeated.
In this study, WR-1065 is detected in washed, isolated, vital mouth mucosa cells at a concentration of about 3.7-19.9 ng/10^5 cells.

[2] = cited from earlier work
[3] = system: epirubicin-induced oral mucositis; conditions: cited from earlier work
[4] = intravenous administration; cited from earlier work
[5] = after amifostine injection; cited from earlier work

NCCCNCCSP(=O)(O)O [Amifostine, S-2-(3-aminopropylamino) ethyl dihydrogen phosphorothioate]
safe administration [1]: can be safely administered | pH of the maximal rate of hydrolysis ([2]; hydrolysis of P-S bond to WR-1065): 3.0 | stability at the gastric pH ([2]; pH from 1 to 3): unstable | difference between patients given amifostine oral rinse and control [3]: no significant difference | clearance from the plasma [4]: rapidly cleared

NCCCNCCS [WR-1065]
safe administration [1]: can be safely administered | systemic side-effects ([1]; oral rinse): no systemic side-effects | tolerability ([1]; oral rinse): well-tolerated | time of maximum tissue concentrations of WR-1065 [5]: within five to fifteen minutes

Source: patent publication US11793820B2, “Dry powder foamable formulations for delivery of medicaments through the mucosa” (priority 2021, dated 2023)
